From patent US20090048210A1, “AGENT FOR THERAPY OR TREATMENT OF WOUND” (priority 2004, published 2009)

How the values were obtained:
[1] = system: normal human neonatal prepuce epidermis keratinized cells (NHEK(F)); assay: Human epidermis keratinized cell proliferation assay (WST-8 cell counting); type: cell-based; settings: for overall effect on cell proliferation ability as compared with the control: summary of the 24 and 48 hour experiments
Method: Human epidermis keratinized cells were cultured in the presence of chitin and chitosan as well as their derivatives, and change in proliferation ability of the cell was measured.
As the human epidermis cell, normal human neonatal prepuce epidermis keratinized cells (NHEK(F)) (Kurabo Biomedical, Osaka) were used.
A medium used for measuring NHEK(F) proliferation effect was obtained by adding 1 ml of a PSA solution (Kurabo Biomedical, Osaka) containing penicillin, streptomycin and amphoterin B, and 10% bovine fetus serum (Gibco, USA) to 500 ml of a basic medium for human epidermis keratinized cell HuMedia-KB2 (Kurabo Biomedical, Osaka).
Cells were cultured under 37° C., 5% CO2 and wet environments using a medium for proliferation and a flask for culturing (Lot No. 055522) (Nalge Nunc International, Denmark), and passed to quaternary culture and used in an experiment.
The medium was aspirated when proliferation of cells reach sub-confluent (60 to 80% of the flask bottom area), then, inside of the vessel was washed with HEPES, and 2 ml of trypsin was added to cause release of cells from the vessel bottom. The released cells were recovered by HEPES and added into the neutralization solution to terminate the reaction of trypsin, and then, precipitated by centrifugal separation (1100 rpm, 5 minutes), and the supernatant was discarded. The recovered cells were re-floated on a medium for proliferation, the live cell number was counted by a trypan blue discharge test, and then, transplanted into another flask for culturing so that the live cell concentration to the flask bottom area was […].
For measurement, cells were centrifugally separated, then, re-floated on a medium for measurement and adjusted at 30000 cells/ml to give a cell suspension which was then used.
Into each well of a 96-well multi-plate (Sumitomo Bakelite Co. Ltd., Tokyo), the cell suspension prepared in (1) was disseminated each in an amount of 100 μl at a concentration of 3000 cells/well. For stabilizing disseminated cells, previous culturing was carried out for 12 hours under 37° C., 5% CO2 and wet environments.
Next, into each well of the multi-plate, the chitin-based samples or chitosan-based samples controlled at respective concentrations were added each in an amount of 10 μl. The final concentrations of respective samples in this operation were 100, 10, 1 and 0.1 μg/ml, respectively. True culturing was carried out for 24 hours or 48 hours under 37° C., 5% CO2 and wet environments.
For counting the number of cells proliferated in the culturing, a reagent for measuring cell number (cell counting kit) WST-8 was added in an amount of 10 μl to each well of the multi-plate, and allowed to stand still under 37° C., 5% CO2 and wet environments for 1 to 4 hours to cause coloration. After coloration, the absorbance was measured using EASY READER EAR340AT (Medi-Con Corporation, Osaka). Numerical treatment and statistics of the measured data were carried out using a table calculation software (Microsoft Excel xp (R)).
The cell number and absorbance show a proportional correlation (FIG. 2, Table 2), and this graph gave a calibration curve:
A cell number in dissemination of 3000 was subtracted from the cell number obtained from this calibration curve to give a proliferated cell number (cells/well).

skin deficient wound = assay: Skin deficient wound mouse model, skin regeneration; type: in vivo
Method: Fresh skin deficient wound was made using mice and a skin regeneration promoting effect of GlcNAc was studied. As a control, chitin in the form of gel (Chitosan Kowa K.K.) and physiological saline were used. (i) Eight 8-weeks female mice: BALB/c having a body weight of 20 to 25 g were used. In the experiment, one week-conditioning period was set. (ii) An N-acetyl-D-glucosamine (GlcNAc) powder (Seikagaku Kogyo K.K., Tokyo) was diluted in physiological saline so that its concentration was 10 mg/ml, and then, sterilized by filtration through a 0.22 μm millipore filter to give stock solution the stock solution was then diluted with sterile physiological saline to 10 μg/ml and used. (iii) chitin in the form of gel (Chitosan Kowa, Tokyo). Hereinafter, referred to as “chitin gel”. (iv) GlcNAc was blended in chitin gel so that its concentration was 10 μg/g and the blend was used. Hereinafter, the blend is referred to as “chitin gel+GlcNAc”. (i) Production of skin deficient model: Pentobarbital (trade name: Nembutal injection) was diluted 10-fold with physiological saline, and then, administered intraperitoneally to a mouse at 0.005 ml/g. After a sufficient anesthetic effect was confirmed, hair at the back of the mouse was shaved by a hair clipper, and the skin was disinfected with alcohol, and then, a round skin deficient region having a diameter of 5 mm was made using a 5 mm derma punch (FIG. 9). These eight mice were classified into “chitin gel group”, “chitin gel+GlcNAc group”, “GlcNAc group” and “physiological saline group” each containing two mice, and each group was applied once a day. (ii) “chitin gel group” and “chitin gel+GlcNAc group” were directly applied to the skin deficient region for 7 days each at 0.1 g/head, and “GlcNAc group” and “physiological saline group” were each at 1 ml/head. (iii) On 8th and later days, the crust formed was removed directly before application of each group, and application was carried out for further 8 days in the same manner as described above. The size of the skin damage repair region was measured on 8th and 16th days using calipers. Staining method: The skin deficiency repair region was collected, and fixed with a 10% neutral buffer formalin aqueous solution (formaldehyde solution). The repair region was excised to give a longitudinal section, and then, embedded in paraffin according to an ordinary method and sliced into 5 μm by a microtome. It was stained by hematoxylin-eosin staining.

[2] = 24 hours after addition, 0.1 μg/ml
[3] = 24 hours after addition, 1 μg/ml
[4] = 24 hours after addition, 10 μg/ml
[5] = 24 hours after addition, 100 μg/ml
[6] = 48 hours after addition, 0.1 μg/ml
[7] = 48 hours after addition, 1 μg/ml
[8] = 48 hours after addition, 10 μg/ml
[9] = 48 hours after addition, 100 μg/ml
[10] = 5 mm skin deficient region, applied once a day for 16 days
[11] = hematoxylin-eosin staining of the repair region

Compound | average cell proliferation number [1, 2] | average cell proliferation number [1, 3] | average cell proliferation number [1, 4] | average cell proliferation number [1, 5] | proliferation effect as compared with the control (p<0.05) ([1]; 24 hours, 1 μg/ml) | proliferation effect as compared with the control (p<0.05) ([1]; 24 hours, 10 μg/ml) | proliferation effect as compared with the control (p<0.05) ([1]; 24 hours, 100 μg/ml) | average cell proliferation number [1, 6] | average cell proliferation number [1, 7] | average cell proliferation number [1, 8] | average cell proliferation number [1, 9] | proliferation effect as compared with the control (p<0.05) ([1]; 48 hours, 1 μg/ml) | overall effect on cell proliferation ability as compared with the control [1] | proliferation effect as compared with the control (p<0.05) ([1]; 48 hours, 10 μg/ml) | proliferation effect as compared with the control (p<0.05) ([1]; 48 hours, 100 μg/ml) | visual observation: epidermis / skin formation (skin deficient wound; [10]) | visual observation: excess granulation (skin deficient wound; [10]) | overall skin regenerating effect in a mouse (skin deficient wound; compared with physiological saline and chitin gel) | histological observation: hypodermis (skin deficient wound; [11]) | histological observation: regeneration of skin / epidermis (skin deficient wound; [11])
N[C@H]1C(O)O[C@H](CO)[C@@H](O)[C@@H]1O (stereo partly drawn) [GlcN, D-Glucosamine, reference compound] | 587 ± 134 cell/well | 766 ± 114 cell/well | 634 ± 65 cell/well | 689 ± 34 cell/well | significant proliferation stimulating effects | significant proliferation stimulating effects | significant proliferation stimulating effects | 1616 ± 244 cell/well | 2108 ± 344 cell/well | 1839 ± 160 cell/well | 1758 ± 424 cell/well | significant proliferation stimulating effect | significant effect of stimulating cell proliferation ability |  |  |  |  |  |  | 
CC(=O)N[C@H]1C(O)O[C@H](CO)[C@@H](O)[C@@H]1O (stereo partly drawn) [GlcNAc, N-Acetyl-D-Glucosamine] | 601 ± 39 cell/well | 774 ± 158 cell/well | 636 ± 51 cell/well | 628 ± 73 cell/well | significant proliferation stimulating effects | significant proliferation stimulating effects | significant proliferation stimulating effects | 1312 ± 169 cell/well | 2372 ± 415 cell/well | 2155 ± 175 cell/well | 2128 ± 165 cell/well | significant proliferation stimulating effects | significant effect of stimulating cell proliferation ability | significant proliferation stimulating effects | significant proliferation stimulating effects | complete cutization was recognized | excess granulation did not occur | more excellent than physiological saline and chitin gel | leaves a slight granulation tissue at the center portion | skin regeneration is completed
